Measurements published in patent US9556145B2, “2-pyridyloxy-4-ester orexin receptor antagonists” (MERCK SHARP & DOHME CORP., priority 2012, dated 2017).

Key:
human orexin-2 receptor = human orexin-2 receptor (Homo sapiens (Human), UniProt O43614); assay: FLIPR Ca2+ Flux Assay, orexin-2 receptor; format: cell-based; conditions: CHO cells expressing the receptor; agonist 70 pM Ala-6,12 orexin-A; read-out: hOX2R FLIPR IC50
Experimental: The utility of the compounds in accordance with the present invention as orexin receptor OX1R and/or OX2R antagonists may be readily determined without undue experimentation by methodology well known in the art, including the “FLIPR Ca^2+ Flux Assay” (Okumura et al., Biochem. Biophys. Res. Comm. 280:976-981, 2001). In a typical experiment the OX1 and OX2 receptor antagonistic activity of the compounds of the present invention was determined in accordance with the following experimental method. For intracellular calcium measurements, Chinese hamster ovary (CHO) cells expressing the rat orexin-1 receptor or the human orexin-2 receptor, are grown in Iscove's modified DMEM containing 2 mM L-glutamine, […], 1% hypoxanthine-thymidine supplement, 100 U/ml penicillin, 100 µg/ml streptomycin and 10% heat-inactivated fetal calf serum (FCS). The cells are seeded at 20,000 cells/well into Becton-Dickinson black 384-well clear bottom sterile plates coated with poly-D-lysine. All reagents were from GIBCO-Invitrogen Corp. The seeded plates are incubated overnight at 37° C. and 5% CO2. Ala-6,12 human orexin-A as the agonist is prepared as a 1 mM stock solution in 1% bovine serum albumin (BSA) and diluted in assay buffer (HBSS containing 20 mM HEPES, 0.1% BSA and 2.5 mM probenecid, pH7.4) for use in the assay at a final concentration of 70 pM. Test compounds are prepared as 10 mM stock solution in DMSO, then diluted in 384-well plates, first in DMSO, then assay buffer. On the day of the assay, cells are washed 3 times with 100 μl assay buffer and then incubated for 60 min (37° C., 5% CO2) in 60 μl assay buffer containing 1 μM Fluo-4AM ester, 0.02% pluronic acid, and 1% BSA. The dye loading solution is then aspirated and cells are washed 3 times with 100 μl assay buffer. 30 μl of that same buffer is left in each well. Within the Fluorescent Imaging Plate Reader (FLIPR, Molecular Devices), test compounds are added to the plate in a volume of 25 μl, incubated for 5 min and finally 25 μl of agonist is added. Fluorescence is measured for each well at 1 second intervals for 5 minutes and the height of each fluorescence peak is compared to the height of the fluorescence peak induced by 70 pM Ala-6,12 orexin-A with buffer in place of antagonist. For each antagonist, IC50 value (the concentration of compound needed to inhibit 50% of the agonist response) is determined. Alternatively, compound potency can be assessed by a radioligand binding assay (described in Bergman et. al. Bioorg. Med. Chem. Lett. 2008, 18, 1425-1430) in which the inhibition constant (Ki) is determined in membranes prepared from CHO cells expressing either the OX1 or OX2 receptor. The intrinsic orexin receptor antagonist activity of a compound which may be used in the present invention may be determined by these assays.

hOX1R = hOX1R (Homo sapiens, UniProt O43613); assay: FLIPR Ca2+ Flux Assay, orexin-1 receptor; format: cell-based; conditions: CHO cells expressing the receptor; agonist 70 pM Ala-6,12 orexin-A

Chain of human orexin-2 receptor (O43614 whole entry): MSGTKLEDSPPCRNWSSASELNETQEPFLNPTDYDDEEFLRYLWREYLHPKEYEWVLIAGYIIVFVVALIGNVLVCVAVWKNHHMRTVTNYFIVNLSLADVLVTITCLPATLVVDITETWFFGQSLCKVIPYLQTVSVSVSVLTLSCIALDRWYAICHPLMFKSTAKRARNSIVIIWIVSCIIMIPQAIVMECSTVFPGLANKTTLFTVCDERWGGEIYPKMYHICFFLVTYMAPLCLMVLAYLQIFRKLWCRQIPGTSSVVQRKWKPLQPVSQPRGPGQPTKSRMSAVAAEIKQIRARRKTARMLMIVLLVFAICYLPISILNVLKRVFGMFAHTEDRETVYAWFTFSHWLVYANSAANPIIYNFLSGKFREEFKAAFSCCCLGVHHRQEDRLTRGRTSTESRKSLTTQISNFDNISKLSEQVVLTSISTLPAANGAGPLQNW

Structure (SMILES)	IC50 (human orexin-2 receptor)	IC50 (hOX1R)
COC(=O)c1ccnc(O[C@@H]2CC[C@@H](C)N(C(=O)c3ccccc3-n3nccn3)C2)c1F [Example 8, methyl 3-fluoro-2-{[(3R,6R)-6-methyl-1-{[2-(2H-1,2,3-triazol-2-yl)phenyl]carbonyl}piperidin-3-yl]oxy}pyridine-4-carboxylate]	24.9 nM	1690 nM
COC(=O)c1cc(O[C@@H]2CC[C@@H](C)N(C(=O)c3ccccc3-n3nccn3)C2)ncc1OC [Example 10, Methyl 5-methoxy-2-{[(3R,6R)-6-methyl-1-{[2-(2H-1,2,3-triazol-2-yl)phenyl]carbonyl}piperidin-3-yl]oxy}pyridine-4-carboxylate]	96 nM	597 nM
COC(=O)c1ccnc(O[C@@H]2CC[C@@H](C)N(C(=O)c3ccc(OC)nc3-n3nccn3)C2)c1 [Example 9, methyl 2-{[(3R,6R)-1-{[6-methoxy-2-(2H-1,2,3-triazol-2-yl)pyridin-3-yl]carbonyl}-6-methylpiperidin-3-yl]oxy}pyridine-4-carboxylate]	406 nM	10000 nM
COC(=O)c1cc(O[C@@H]2CC[C@@H](C)N(C(=O)c3ccccc3-n3nccn3)C2)ncc1C(F)(F)F [Example 3, methyl 2-{[(3R,6R)-6-methyl-1-{[2-(2H-1,2,3-triazol-2-yl)phenyl]-carbonyl}piperidin-3-yl]oxy}-5-(trifluoro-methyl)pyridine-4-carboxylate]	57 nM	28 nM
COC(=O)c1cc(O[C@@H]2CC[C@@H](C)N(C(=O)c3ccccc3-n3nccn3)C2)ncc1C [Example 11, Methyl 5-methyl-2-{[(3R,6R)-6-methyl-1-{[2-(2H-1,2,3-triazol-2-yl)phenyl]carbonyl}piperidin-3-yl]oxy}pyridine-4-carboxylate]	11 nM	31 nM
COC(=O)c1ccnc(O[C@@H]2CC[C@@H](C)N(C(=O)c3ccccc3-n3nccn3)C2)c1C(=O)OC [Example 6, dimethyl 2-{[(3R,6R)-6-methyl-1-{[2-(2H-1,2,3-triazol-2-yl)phenyl]-carbonyl}-piperidin-3-yl]oxy}pyridine-3,4-dicarboxylate]	30.8 nM	526 nM
COC(=O)c1ccnc(O[C@@H]2CC[C@@H](C)N(C(=O)c3ccccc3-n3nccn3)C2)c1 [Example 1, Methyl 2-{[(3R,6R)-6-methyl-1-{[2-(2H-1,2,3-triazol-2-yl)phenyl]carbonyl}piperidin-3-yl]oxy}pyridine-4-carboxylate]	26 nM	1400 nM
COC(=O)c1ccnc(O[C@@H]2CC[C@@H](C)N(C(=O)c3ccc(OC)nc3-c3ncccn3)C2)c1 [Example 12, Methyl 2-({(3R,6R)-1-[(6-methoxy-2-pyrimidin-2-ylpyridin-3-yl)carbonyl]-6-methylpiperidin-3-yl}oxy)pyridine-4-carboxylate]	2110 nM	10000 nM
COC(=O)c1ccnc(O[C@@H]2CC[C@@H](C)N(C(=O)c3ccccc3-n3nccn3)C2)c1Cl [Example 5, Methyl 3-chloro-2-{[(3R,6R)-6-methyl-1-{[2-(2H-1,2,3-triazol-2-yl)phenyl]carbonyl}piperidin-3-yl]oxy}pyridine-4-carboxylate]	11 nM	953 nM
COC(=O)c1cc(O[C@@H]2CC[C@@H](C)N(C(=O)c3ccccc3-n3nccn3)C2)ncc1Br [Example 4, methyl 5-bromo-2-{[(3R,6R)-6-methyl-1-{[2-(2H-1,2,3-triazol-2-yl)phenyl]carbon-yl}piperidin-3-yl]oxy}pyridine-4-carboxylate]	60 nM	28.9 nM
COC(=O)c1cc(C)nc(O[C@@H]2CC[C@@H](C)N(C(=O)c3ccccc3-n3nccn3)C2)c1 [Example 7, methyl 2-methyl-6-{[(3R,6R)-6-methyl-1-{[2-(2H-1,2,3-triazol-2-yl)phenyl]carbonyl}piperidin-3-yl]oxy}pyridine-4-carboxylate]	82.6 nM	1470 nM
